We go through nine compounds from ChEMBL document CHEMBL3751727, “One-pot green synthesis of 1,3,5-triarylpentane-1,5-dione and triarylmethane derivatives as a new class of tyrosinase inhibitors” (Bioorg Med Chem Lett, 2016).

Experiment [1] addresses T1, Tyrosinase (Agaricus bisporus, UniProt O42713).
T1 sequence (O42713 whole entry): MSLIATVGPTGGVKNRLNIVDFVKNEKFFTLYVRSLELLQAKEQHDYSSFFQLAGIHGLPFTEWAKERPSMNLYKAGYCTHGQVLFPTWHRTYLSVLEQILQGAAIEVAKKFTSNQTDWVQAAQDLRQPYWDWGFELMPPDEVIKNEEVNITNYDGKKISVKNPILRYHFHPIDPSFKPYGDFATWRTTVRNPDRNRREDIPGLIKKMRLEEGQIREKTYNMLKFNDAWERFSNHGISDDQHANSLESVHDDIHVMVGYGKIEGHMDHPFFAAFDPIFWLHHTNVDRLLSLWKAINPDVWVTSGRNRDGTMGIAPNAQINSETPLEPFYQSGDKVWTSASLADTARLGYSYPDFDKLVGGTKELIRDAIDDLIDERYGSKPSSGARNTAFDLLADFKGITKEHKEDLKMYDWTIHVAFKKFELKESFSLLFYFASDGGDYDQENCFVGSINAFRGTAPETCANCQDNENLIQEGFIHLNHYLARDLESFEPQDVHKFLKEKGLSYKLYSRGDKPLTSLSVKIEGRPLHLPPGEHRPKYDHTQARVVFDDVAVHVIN
Description: Inhibition of mushroom tyrosinase using L-tyrosine as substrate after 20 mins by spectrophotometric method

The target in experiment [2] is T2, Tyrosinase (Agaricus bisporus) (UniProt O42713).
T2 sequence (whole entry): T1 sequence (O42713 whole entry)
The experiment in a line: Ratio of kojic acid IC50 to compound IC50 for mushroom tyrosinase.

Each structure is given as a SMILES string.

On to `CC(=O)c1ccccc1O`, for which the 50% inhibitory concentration (IC50) in experiment [1] was above 300000 nM.

For the compound `O=C1CC(c2ccc(O)cc2O)Oc2ccccc21` (stereo unspecified), the Ratio IC50 in experiment [2] amounted to 30. This compound also came in with an IC50 in experiment [1] of 970 nM.

For `O=C(/C=C/c1ccc(O)cc1O)c1ccccc1O`, in experiment [2], the Ratio IC50 was found to be 30. The same compound displayed an IC50 in experiment [1] of 29 nM.

`O=Cc1ccc(O)cc1O` came in with a 50% inhibitory concentration (IC50) in experiment [1] above 200000 nM.

On to `CC(=O)c1c(O)cccc1O`, for which the IC50 in experiment [1] was above 300000 nM.

On to `O=c1cc(-c2ccc(O)cc2O)oc2cccc(O)c12`, for which the IC50 in experiment [1] is 2720 nM.

`CC(=O)c1c(O)ccc(C(c2ccc(O)cc2O)c2ccc(O)c(C(C)=O)c2O)c1O` came in with a half-inhibitory concentration (IC50) in experiment [1] of 16200 nM.

As to `O=C(CC(CC(=O)c1ccccc1O)c1ccc(O)cc1O)c1ccccc1O`, in experiment [1], the 50% inhibitory concentration (IC50) was 1670 nM.

`O=C1CC(c2ccc(O)cc2O)Oc2cccc(O)c21` (stereo unspecified) gave an IC50 in experiment [1] of 1960 nM.
